Legend:
[1] = target: T1, Endothelin-1 receptor (Homo sapiens, UniProt P25101); format: cell membranes, CHO-K1, Membrane; settings: cho-k1; further: in other assays of this panel Not Active means under 50% inhibition at 10 µM
T1 sequence (P25101 whole entry): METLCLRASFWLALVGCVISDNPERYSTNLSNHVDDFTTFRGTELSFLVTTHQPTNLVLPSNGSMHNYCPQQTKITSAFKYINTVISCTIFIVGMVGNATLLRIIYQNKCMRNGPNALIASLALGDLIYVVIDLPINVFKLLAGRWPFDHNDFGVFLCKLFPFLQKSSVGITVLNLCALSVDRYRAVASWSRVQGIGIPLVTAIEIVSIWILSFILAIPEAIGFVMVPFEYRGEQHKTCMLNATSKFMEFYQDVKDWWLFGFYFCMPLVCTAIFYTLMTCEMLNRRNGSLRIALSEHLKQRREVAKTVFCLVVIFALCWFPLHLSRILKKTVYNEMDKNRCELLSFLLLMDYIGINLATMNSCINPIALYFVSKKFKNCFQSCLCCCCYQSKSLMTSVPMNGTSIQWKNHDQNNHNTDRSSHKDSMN

[2] = target: Sigma non-opioid intracellular receptor 1 (Homo sapiens, UniProt Q99720); experiment: DRUGMATRIX: Sigma1 radioligand binding (ligand: [3H] Haloperidol); format: cell membranes, Jurkat, Membrane; settings: Not Active = under 50% inhibition at 10 µM
Chain of Sigma non-opioid intracellular receptor 1 (Q99720 whole entry): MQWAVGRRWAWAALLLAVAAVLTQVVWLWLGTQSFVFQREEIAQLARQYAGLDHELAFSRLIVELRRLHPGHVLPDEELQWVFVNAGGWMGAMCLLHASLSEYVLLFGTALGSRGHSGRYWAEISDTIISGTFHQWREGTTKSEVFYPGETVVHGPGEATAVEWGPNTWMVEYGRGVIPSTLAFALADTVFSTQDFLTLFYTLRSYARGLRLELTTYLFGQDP

[3] = target: T2, 3-hydroxy-3-methylglutaryl-coenzyme A reductase (Homo sapiens, UniProt P04035); parameters: species or system Escherichia coli;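 further: enzyme inhibition assay of HMG-CoA reductase using radiolabeled [14C]HMG-CoA as substrate; in other assays of this panel Not Active means under 50% inhibition at 10 µM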
T2 sequence (P04035 whole entry): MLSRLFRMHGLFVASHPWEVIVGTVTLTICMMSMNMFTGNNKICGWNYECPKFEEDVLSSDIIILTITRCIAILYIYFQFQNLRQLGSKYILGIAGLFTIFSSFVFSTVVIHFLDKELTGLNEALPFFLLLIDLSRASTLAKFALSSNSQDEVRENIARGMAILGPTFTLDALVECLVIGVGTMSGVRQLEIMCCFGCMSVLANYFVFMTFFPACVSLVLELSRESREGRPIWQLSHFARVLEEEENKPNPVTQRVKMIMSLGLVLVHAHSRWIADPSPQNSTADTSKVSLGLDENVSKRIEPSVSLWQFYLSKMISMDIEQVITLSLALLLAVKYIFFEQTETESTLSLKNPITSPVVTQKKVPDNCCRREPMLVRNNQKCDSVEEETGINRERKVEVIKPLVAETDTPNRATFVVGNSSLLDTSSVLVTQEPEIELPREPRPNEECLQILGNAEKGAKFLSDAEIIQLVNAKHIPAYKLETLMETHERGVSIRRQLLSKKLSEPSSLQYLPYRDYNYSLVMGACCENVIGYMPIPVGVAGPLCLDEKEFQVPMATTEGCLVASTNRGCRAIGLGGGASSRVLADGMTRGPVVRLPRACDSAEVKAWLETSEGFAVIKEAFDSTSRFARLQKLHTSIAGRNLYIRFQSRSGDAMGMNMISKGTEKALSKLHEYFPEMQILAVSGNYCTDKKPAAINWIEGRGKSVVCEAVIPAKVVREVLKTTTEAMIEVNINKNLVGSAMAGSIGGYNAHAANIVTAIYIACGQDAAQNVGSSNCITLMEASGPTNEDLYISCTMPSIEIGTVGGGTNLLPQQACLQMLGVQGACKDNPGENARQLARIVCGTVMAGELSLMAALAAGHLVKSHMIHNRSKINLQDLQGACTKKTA

[4] = target: T3, Caspase-1 (Homo sapiens, UniProt P29466); parameters: species or system Escherichia coli;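 further: Caspase-1 enzyme inhibition assay with a peptide substrate; in other assays of this panel Not Active means under 50% inhibition at 10 µM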
T3 sequence (P29466 whole entry): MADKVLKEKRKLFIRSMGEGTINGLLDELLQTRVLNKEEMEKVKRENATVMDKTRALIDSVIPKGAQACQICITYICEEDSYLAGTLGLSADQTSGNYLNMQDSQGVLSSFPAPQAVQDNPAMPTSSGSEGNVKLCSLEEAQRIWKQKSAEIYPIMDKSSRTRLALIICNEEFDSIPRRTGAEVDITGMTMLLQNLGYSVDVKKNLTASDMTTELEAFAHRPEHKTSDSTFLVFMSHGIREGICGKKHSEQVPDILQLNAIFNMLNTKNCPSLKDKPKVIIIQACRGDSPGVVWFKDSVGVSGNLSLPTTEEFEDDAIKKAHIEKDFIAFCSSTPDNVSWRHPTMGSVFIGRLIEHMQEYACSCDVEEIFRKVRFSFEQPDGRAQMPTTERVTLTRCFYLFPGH

[5] = DRUGMATRIX: Sodium/nucleoside co-transporter radioligand binding (ligand: nitrobenzylthioinosine); format: cell membranes, Cavia porcellus, Dunkin-Hartley, Cerebral cortex, Membrane; settings: Not Active = under 50% inhibition at 10 µM
[6] = DRUGMATRIX: Calcium Channel Type L, Phenylalkylamine radioligand binding (ligand: [3H] (-)-Desmethoxyverapamil (D-888)); format: cell membranes, Rattus norvegicus, Wistar, Brain, Membrane; settings: Not Active = under 50% inhibition at 10 µM
[7] = target: T4, Cysteinyl leukotriene receptor 1 (Homo sapiens, UniProt Q9Y271); format: cell membranes, Membrane; settings: cho-k1; further: in other assays of this panel Not Active means under 50% inhibition at 10 µM
T4 sequence (Q9Y271 whole entry): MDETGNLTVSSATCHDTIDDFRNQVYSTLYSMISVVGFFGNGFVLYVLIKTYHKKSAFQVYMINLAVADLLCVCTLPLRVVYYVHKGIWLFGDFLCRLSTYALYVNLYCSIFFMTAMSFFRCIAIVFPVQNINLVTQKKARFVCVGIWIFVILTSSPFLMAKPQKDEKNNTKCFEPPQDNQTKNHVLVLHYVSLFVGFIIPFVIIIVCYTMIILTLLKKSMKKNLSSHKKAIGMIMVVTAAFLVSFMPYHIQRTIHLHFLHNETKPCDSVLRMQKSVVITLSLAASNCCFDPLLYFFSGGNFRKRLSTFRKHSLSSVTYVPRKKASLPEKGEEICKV

C=C(CC)C(=O)c1ccc(OCC(=O)O)c(Cl)c1Cl [ETHACRYNIC ACID]
IC50 [1]: Not Active
IC50 ([2]; jurkat): Not Active
IC50 [3]: Not Active
IC50 [4]: Not Active
IC50 [5]: Not Active
Ki [5]: Not Active
IC50 [6]: Not Active
Ki [6]: Not Active
IC50 [7]: Not Active

CC(C(=O)O)c1ccc(-c2ccccc2)c(F)c1 (stereo unspecified) [FLURBIPROFEN]
IC50 [1]: Not Active
IC50 ([2]; jurkat): Not Active
IC50 [3]: Not Active
IC50 [4]: Not Active
IC50 [5]: Not Active
Ki [5]: Not Active
IC50 [6]: Not Active
Ki [6]: Not Active
IC50 [7]: Not Active

COc1ccccc1OCC(O)COC(N)=O (stereo unspecified) [METHOCARBAMOL]
IC50 [1]: Not Active
IC50 ([2]; jurkat): Not Active
IC50 [3]: Not Active
IC50 [4]: Not Active
IC50 [5]: Not Active
Ki [5]: Not Active
IC50 [6]: Not Active
Ki [6]: Not Active
IC50 [7]: Not Active

CC(C(=O)O)c1ccc(CC2CCCC2=O)cc1 (stereo unspecified) [LOXOPROFEN]
IC50 [1]: Not Active
IC50 ([2]; jurkat): Not Active
IC50 [3]: Not Active
IC50 [4]: Not Active
IC50 [5]: Not Active
Ki [5]: Not Active
IC50 [6]: Not Active
Ki [6]: Not Active
IC50 [7]: Not Active

CCCCC1C(=O)N(c2ccccc2)N(c2ccccc2)C1=O [PHENYLBUTAZONE]
IC50 [1]: Not Active
IC50 ([2]; jurkat): Not Active
IC50 [3]: Not Active
IC50 [4]: Not Active
IC50 [5]: Not Active
Ki [5]: Not Active
IC50 [6]: Not Active
Ki [6]: Not Active
IC50 [7]: Not Active

CCN[C@@H](C)Cc1cccc(C(F)(F)F)c1 [DEXFENFLURAMINE]
IC50 [1]: Not Active
IC50 ([2]; read-out: IC50): 516 nM
Ki ([2]; read-out: Ki): 217 nM
IC50 [3]: Not Active
IC50 [4]: Not Active
IC50 [5]: Not Active
Ki [5]: Not Active
IC50 [6]: Not Active
Ki [6]: Not Active
IC50 [7]: Not Active

COc1ccccc1OCC(O)CO (stereo unspecified) [GUAIFENESIN]
IC50 [1]: Not Active
IC50 ([2]; jurkat): Not Active
IC50 [3]: Not Active
IC50 [4]: Not Active
IC50 [5]: Not Active
Ki [5]: Not Active
IC50 [6]: Not Active
Ki [6]: Not Active
IC50 [7]: Not Active

CCC(=O)O[C@H]1[C@H](O[C@@H]2[C@@H](C)[C@H](O[C@H]3C[C@@](C)(OC)[C@@H](O)[C@H](C)O3)[C@@H](C)C(=O)O[C@H](CC)[C@@](C)(O)[C@H](O)[C@@H](C)C(=O)[C@H](C)C[C@@]2(C)O)O[C@H](C)C[C@@H]1N(C)C [ERYTHROMYCIN PROPIONATE]
IC50 [1]: Not Active
IC50 ([2]; jurkat): Not Active
IC50 [3]: Not Active
IC50 [4]: Not Active
IC50 [5]: Not Active
Ki [5]: Not Active
IC50 [6]: Not Active
Ki [6]: Not Active
IC50 [7]: Not Active

C=C1/C(=C\C=C2/CCC[C@]3(C)[C@@H]([C@H](C)CCCC(C)C)CC[C@@H]23)C[C@@H](O)C[C@@H]1O [ALFACALCIDOL]
IC50 [1]: Not Active
IC50 ([2]; jurkat): Not Active
IC50 [3]: Not Active
IC50 [4]: Not Active
IC50 [5]: Not Active
Ki [5]: Not Active
IC50 [6]: Not Active
Ki [6]: Not Active
IC50 [7]: Not Active

CS(=O)(=O)OCCCCOS(C)(=O)=O [BUSULFAN]
IC50 [1]: Not Active
IC50 ([2]; jurkat): Not Active
IC50 [3]: Not Active
IC50 [4]: Not Active
IC50 [5]: Not Active
Ki [5]: Not Active
IC50 [6]: Not Active
Ki [6]: Not Active
IC50 [7]: Not Active

C[C@]12CCC(=O)C=C1CC[C@@H]1[C@@H]2[C@@H](O)C[C@@]2(C)[C@H]1CC[C@]2(O)C(=O)CO [HYDROCORTISONE]
IC50 [1]: Not Active
IC50 ([2]; jurkat): Not Active
IC50 [3]: Not Active
IC50 [4]: Not Active
IC50 [5]: Not Active
Ki [5]: Not Active
IC50 [6]: Not Active
Ki [6]: Not Active
IC50 [7]: Not Active

POLYVINYL ALCOHOL
IC50 [1]: Not Active
Ki [1]: Not Active
IC50 ([2]; jurkat): Not Active
Ki ([2]; jurkat): Not Active
IC50 [3]: Not Active
Ki [3]: Not Active
IC50 [4]: Not Active
Ki [4]: Not Active
IC50 [5]: Not Active
Ki [5]: Not Active
IC50 [6]: Not Active
Ki [6]: Not Active
IC50 [7]: Not Active
Ki [7]: Not Active

COBALT(II) ACETYLACETONATE
IC50 [1]: Not Active
Ki [1]: Not Active
IC50 ([2]; jurkat): Not Active
Ki ([2]; jurkat): Not Active
IC50 [3]: Not Active
Ki [3]: Not Active
IC50 [4]: Not Active
Ki [4]: Not Active
IC50 [5]: Not Active
Ki [5]: Not Active
IC50 [6]: Not Active
Ki [6]: Not Active
IC50 [7]: Not Active
Ki [7]: Not Active

Nc1nc(N)nc(NC2CC2)n1 [CYROMAZINE]
IC50 [1]: Not Active
IC50 ([2]; jurkat): Not Active
IC50 [3]: Not Active
IC50 [4]: Not Active
IC50 [5]: Not Active
Ki [5]: Not Active
IC50 [6]: Not Active
Ki [6]: Not Active
IC50 [7]: Not Active

CN(C(=O)CCCOc1ccc2[nH]c(=O)ccc2c1)C1CCCCC1 [CILOSTAMIDE]
IC50 [1]: Not Active
IC50 ([2]; jurkat): Not Active
IC50 [3]: Not Active
IC50 [4]: Not Active
IC50 [5]: Not Active
Ki [5]: Not Active
IC50 [6]: Not Active
Ki [6]: Not Active
IC50 [7]: Not Active

CN1C[C@H](C(=O)N[C@]2(C)O[C@@]3(O)[C@@H]4CCCN4C(=O)[C@H](Cc4ccccc4)N3C2=O)C[C@@H]2c3cccc4[nH]cc(c34)C[C@H]21 [DIHYDROERGOTAMINE]
IC50 [1]: Not Active
IC50 ([2]; jurkat): Not Active
IC50 [3]: Not Active
IC50 [4]: Not Active
IC50 [5]: Not Active
Ki [5]: Not Active
IC50 [7]: Not Active

Cc1cnc(C(=O)NCCc2ccc(S(=O)(=O)NC(=O)NC3CCCCC3)cc2)cn1 [GLIPIZIDE]
IC50 [1]: Not Active
IC50 ([2]; jurkat): Not Active
IC50 [5]: Not Active
Ki [5]: Not Active
IC50 [6]: Not Active
Ki [6]: Not Active
IC50 [7]: Not Active

CC[C@H](C)C(=O)O[C@H]1C[C@@H](C)C=C2C=C[C@H](C)[C@H](CC[C@@H]3C[C@@H](O)CC(=O)O3)[C@H]21 [LOVASTATIN]
IC50 [1]: Not Active
IC50 ([2]; jurkat): Not Active
IC50 [4]: Not Active
IC50 [5]: Not Active
Ki [5]: Not Active
IC50 ([6]; read-out: IC50): 6.32 µM
Ki ([6]; read-out: Ki): 6.14 µM
IC50 [7]: Not Active

CC[C@H](C)C(=O)O[C@H]1C[C@H](O)C=C2C=C[C@H](C)[C@H](CC[C@@H](O)C[C@@H](O)CC(=O)O)[C@H]21 [PRAVASTATIN]
IC50 [1]: Not Active
IC50 ([2]; jurkat): Not Active
IC50 [4]: Not Active
IC50 [5]: Not Active
Ki [5]: Not Active
IC50 [6]: Not Active
Ki [6]: Not Active
IC50 [7]: Not Active
